Calls of active or inactive are those of the source.
Legend:
P388 = assay: cells; type: functional; settings: Mus musculus, P388
P388/ADR = assay: cells; type: functional; settings: Mus musculus, P388/ADR
SN12K1 = assay: cells; type: functional; settings: Homo sapiens, SN12K1
[1] = Shn3 3'UTR reporter inhibitors, dose response, cell-based, Clone20 osteoblasts, firefly luciferase, cherry-picked (AID 624132); type: functional;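 further: firefly luciferase luminescence from reporter carrying the Shn3 3'UTR in osteoblasts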
[2] = control 3'UTR Renilla luciferase suppression, dose response, counter-screen for Shn3 inhibitor project, cell-based, Clone20-Shn3RL, cherry-picked (AID 624133); type: functional
[3] = HepG2 cell cytotoxicity, dose response, cytotoxicity control for Shn3 inhibitor project, CellTiter-Glo, cherry-picked (AID 624134); type: functional, cell-based
[4] = cytotoxicity in HEK-293T cells, dose response, cytotoxicity control for TCR NF-kB inhibitor project, luminescence, T-cell screen hits (AID 489026); type: functional, cell-based;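 further: cells exposed to compound about 14 hours before the viability readout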
INS1 = assay: beta cell apoptosis inhibitors, cytokine rescue, dose response, luminescence, retest (AID 449756); type: functional, cell-based; settings: Rattus norvegicus;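 further: cell death triggered by IL-1 beta plus TNF-alpha plus IFN-gamma mixture; protective hits raise ATP signal compared with cytokine alone wells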
[5] = test system: Streptococcus sp. 'group A'; assay: growth inhibition of control SK(-) GAS strain, dose response, counter-screen for streptokinase expression inhibitor project, luminescence, kanamycin, BacTiterGlo, confirmation (AID 1900); type: functional, organism-based
Cytochrome P450 2C9 = Cytochrome P450 2C9 (Homo sapiens, UniProt P11712)
Streptokinase A = target: T1, Streptokinase A (Streptococcus pyogenes serotype M1, UniProt P10520); assay: S. pyogenes streptokinase expression inhibitors, potency, dose response, plasminogen activation absorbance, OD405 (AID 1914); type: functional, Streptococcus pyogenes M1 GAS;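 further: secreted streptokinase activity via plasminogen activation per viability signal from cell pellet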
T1 sequence (P10520 whole entry): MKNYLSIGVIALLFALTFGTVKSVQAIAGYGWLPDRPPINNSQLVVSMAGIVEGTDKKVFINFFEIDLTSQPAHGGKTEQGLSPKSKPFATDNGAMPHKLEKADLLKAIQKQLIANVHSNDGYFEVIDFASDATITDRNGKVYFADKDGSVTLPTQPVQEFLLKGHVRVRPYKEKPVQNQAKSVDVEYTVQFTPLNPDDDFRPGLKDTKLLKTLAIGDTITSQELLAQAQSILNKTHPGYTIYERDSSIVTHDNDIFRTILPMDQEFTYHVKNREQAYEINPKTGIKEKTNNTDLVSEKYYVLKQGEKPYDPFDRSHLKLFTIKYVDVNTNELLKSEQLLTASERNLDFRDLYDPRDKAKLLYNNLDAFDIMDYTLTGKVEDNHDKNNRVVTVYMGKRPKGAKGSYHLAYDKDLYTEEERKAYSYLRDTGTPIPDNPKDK

Streptococcus = assay: Group A Streptococcus viability loss, dose response, counter-screen for streptokinase expression inhibitor project, luminescence, BacTiterGlo (AID 1915); type: functional, organism-based;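 further: potency for reduction of bacterial viability or growth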
[6] = target: T2, Carboxy-terminal domain RNA polymerase II polypeptide A small phosphatase 1 (Homo sapiens, UniProt Q9GZU7); assay: inhibitors of CTDSP1, concentration-response testing, biochemical assay, absorbance-based, actives from ultra-high-throughput screening (AID 540297); type: functional
T2 sequence (Q9GZU7 whole entry): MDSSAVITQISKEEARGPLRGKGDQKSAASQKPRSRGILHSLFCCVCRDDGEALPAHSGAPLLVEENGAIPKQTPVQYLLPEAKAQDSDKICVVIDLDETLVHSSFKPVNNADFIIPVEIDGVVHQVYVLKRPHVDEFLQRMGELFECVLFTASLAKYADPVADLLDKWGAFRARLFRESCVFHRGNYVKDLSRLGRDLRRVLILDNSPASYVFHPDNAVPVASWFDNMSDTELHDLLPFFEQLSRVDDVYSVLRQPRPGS

[7] = cytotoxicity toward NIH3T3 fibroblasts, dose response, counter-screen, cell-based, ATP luminescence, mouse fibroblasts (AID 2010); type: functional;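 further: cells exposed to compound for about 90 hours before reading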
[8] = inhibitors of intracellular T. cruzi replication, confirmation, NIH3T3 host cells, beta-gal luminescence (AID 2044); type: functional, cell-based;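 further: intracellular parasites grown in NIH/3T3 mouse fibroblasts as host cells; luminescent beta-galactosidase reporter signal from transgenic T. cruzi replicating inside host cells; inhibitors lower the luminescence signal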
Protein RecA = target: T3, Protein RecA (Mycobacterium tuberculosis, UniProt P9WHJ3); assay: Fluorescence Cell-Free Homogeneous Dose Retest to Identify Inhibitors of RecA-Intein Splicing Activity. [Related pubchem assays (depositor defined):AID2097, AID2223, AID489010, AID492950]; type: functional
T3 sequence (P9WHJ3 whole entry): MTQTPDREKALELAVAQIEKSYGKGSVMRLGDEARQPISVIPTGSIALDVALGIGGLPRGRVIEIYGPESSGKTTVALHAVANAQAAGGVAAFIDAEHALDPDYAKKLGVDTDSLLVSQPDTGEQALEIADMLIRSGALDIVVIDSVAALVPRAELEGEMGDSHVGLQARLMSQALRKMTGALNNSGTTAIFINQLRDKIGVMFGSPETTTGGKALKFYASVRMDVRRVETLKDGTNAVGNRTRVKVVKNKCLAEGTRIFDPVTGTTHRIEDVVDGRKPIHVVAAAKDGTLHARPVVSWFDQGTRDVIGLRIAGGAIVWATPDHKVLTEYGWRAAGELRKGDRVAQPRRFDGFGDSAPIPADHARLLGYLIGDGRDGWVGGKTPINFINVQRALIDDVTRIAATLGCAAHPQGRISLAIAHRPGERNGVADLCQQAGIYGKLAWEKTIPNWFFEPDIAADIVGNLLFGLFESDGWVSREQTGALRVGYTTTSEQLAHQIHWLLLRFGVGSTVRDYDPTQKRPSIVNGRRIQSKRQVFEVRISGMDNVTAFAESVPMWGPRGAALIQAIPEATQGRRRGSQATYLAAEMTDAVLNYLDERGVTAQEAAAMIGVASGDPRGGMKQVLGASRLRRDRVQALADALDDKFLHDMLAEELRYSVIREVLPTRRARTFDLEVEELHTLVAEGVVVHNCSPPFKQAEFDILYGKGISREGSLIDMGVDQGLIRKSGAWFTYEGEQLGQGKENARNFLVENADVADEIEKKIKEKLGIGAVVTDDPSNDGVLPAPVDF

[9] = target: T4, Replicative DNA helicase DnaB (Mycobacterium tuberculosis, UniProt P9WMR3); assay: DnaB intein splicing inhibitors, dose response, biochemical, cell-free fluorescence (AID 449749); type: functional
T4 sequence (P9WMR3 whole entry): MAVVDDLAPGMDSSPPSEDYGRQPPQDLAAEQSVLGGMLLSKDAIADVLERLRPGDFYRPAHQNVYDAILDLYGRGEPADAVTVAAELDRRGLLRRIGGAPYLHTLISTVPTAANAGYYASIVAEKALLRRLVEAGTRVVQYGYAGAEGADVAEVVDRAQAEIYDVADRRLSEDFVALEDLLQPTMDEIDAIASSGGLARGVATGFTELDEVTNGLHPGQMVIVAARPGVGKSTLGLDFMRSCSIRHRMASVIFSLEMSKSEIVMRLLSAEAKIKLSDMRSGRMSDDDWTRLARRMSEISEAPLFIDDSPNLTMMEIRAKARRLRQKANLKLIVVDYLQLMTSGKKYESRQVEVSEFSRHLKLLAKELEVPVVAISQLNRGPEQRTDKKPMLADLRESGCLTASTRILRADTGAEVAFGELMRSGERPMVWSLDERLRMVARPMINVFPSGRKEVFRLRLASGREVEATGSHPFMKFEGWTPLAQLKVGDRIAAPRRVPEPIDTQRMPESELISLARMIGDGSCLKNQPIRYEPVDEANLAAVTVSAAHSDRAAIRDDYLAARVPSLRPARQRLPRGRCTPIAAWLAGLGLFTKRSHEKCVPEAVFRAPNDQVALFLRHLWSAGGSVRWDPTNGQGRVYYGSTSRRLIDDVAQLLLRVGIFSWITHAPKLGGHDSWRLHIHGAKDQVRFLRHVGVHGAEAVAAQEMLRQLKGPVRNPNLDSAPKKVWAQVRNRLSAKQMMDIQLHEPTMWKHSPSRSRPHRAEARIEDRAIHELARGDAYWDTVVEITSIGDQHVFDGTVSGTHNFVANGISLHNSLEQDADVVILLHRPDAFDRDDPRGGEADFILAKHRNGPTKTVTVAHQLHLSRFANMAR

[10] = Luminescence Cell-Based Dose Confirmation HTS to Identify Inhibitors of Platelet Dense Granule Release. [Related pubchem assays: 1663 (Primary HTS), 1678 (Summary of Project)]; type: functional
[11] = target: Luciferin 4-monooxygenase (Photinus pyralis, UniProt P08659); assay: firefly luciferase enzyme inhibitors, dose response, biochemical, luminescence (AID 1891)
Cytochrome P450 2C19 = Cytochrome P450 2C19 (Homo sapiens, UniProt P33261); assay: Cytochrome panel assay with activity outcomes. Panel member name: p450-cyp2c19 Compounds with AC50 equal or less than 10 uM are considered active; type: functional; settings: read-out: AC50
Cytochrome P450 3A4 = Cytochrome P450 3A4 (Homo sapiens, UniProt P08684);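 further: CYP3A4 tested as one member of a cytochrome P450 panel screen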
[12] = Luminescence Cell-Based Dose Response HTS to Identify Activators of Luciferase Translation or Activity in H4 […] Cells. [Related pubchem assays: 1829 (Project Summary), 1814 (Primary HTS)]; type: functional
H4 = assay: Luminescence Cell-Based Dose Response HTS to Identify Activators of 5'UTR Stem-Loop Driven Prion Protein mRNA Translation in H4 Neuroglioblastoma Cells. [Related pubchem assays: 1829 (Project Summary), 1814 (Primary HTS)]; type: functional; settings: Homo sapiens
[13] = Luminescence Cell-Based Dose Confirmation HTS to Identify Activators of 5'UTR Stem-Loop Driven Alpha-Synuclein mRNA Translation in H4 Neuroglioblastoma Cells. [Related pubchem assays: 1829 (Project Summary), 1814 (Primary HTS)]; type: functional
[14] = Luminescence Cell-Based Dose Retest to Confirm Inhibitors of Cancer Stem Cells. [Related pubchem assays (depositor defined):AID2717, AID2721]; type: functional; settings: Homo sapiens

Chain of Cytochrome P450 2C9 (P11712 whole entry): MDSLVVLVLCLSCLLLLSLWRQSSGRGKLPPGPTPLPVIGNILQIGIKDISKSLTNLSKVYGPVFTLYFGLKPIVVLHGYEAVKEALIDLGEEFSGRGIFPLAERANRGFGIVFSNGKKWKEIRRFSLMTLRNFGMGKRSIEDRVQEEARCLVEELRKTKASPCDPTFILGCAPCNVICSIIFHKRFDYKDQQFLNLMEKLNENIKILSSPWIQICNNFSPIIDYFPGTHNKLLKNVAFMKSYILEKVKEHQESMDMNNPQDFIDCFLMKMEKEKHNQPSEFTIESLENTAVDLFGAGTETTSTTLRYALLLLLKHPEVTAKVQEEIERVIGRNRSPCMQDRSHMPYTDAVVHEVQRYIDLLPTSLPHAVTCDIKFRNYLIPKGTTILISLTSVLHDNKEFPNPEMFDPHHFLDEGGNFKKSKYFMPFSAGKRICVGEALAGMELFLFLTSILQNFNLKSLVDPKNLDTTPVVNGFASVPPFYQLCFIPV
Chain of Cytochrome P450 3A4 (P08684 whole entry): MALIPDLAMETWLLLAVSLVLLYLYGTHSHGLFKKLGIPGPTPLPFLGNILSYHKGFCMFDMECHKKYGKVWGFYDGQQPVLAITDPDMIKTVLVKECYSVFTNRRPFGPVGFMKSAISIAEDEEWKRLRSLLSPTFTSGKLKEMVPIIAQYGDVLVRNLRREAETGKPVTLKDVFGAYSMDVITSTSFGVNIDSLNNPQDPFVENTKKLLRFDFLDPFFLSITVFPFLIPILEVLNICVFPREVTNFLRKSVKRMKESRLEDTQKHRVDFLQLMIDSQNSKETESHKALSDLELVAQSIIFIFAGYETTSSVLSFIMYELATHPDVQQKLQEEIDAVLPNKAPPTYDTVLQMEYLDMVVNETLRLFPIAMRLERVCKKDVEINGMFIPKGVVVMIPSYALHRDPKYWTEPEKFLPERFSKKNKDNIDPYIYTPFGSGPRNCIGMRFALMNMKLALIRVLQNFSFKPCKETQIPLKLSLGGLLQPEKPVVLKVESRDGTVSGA
Chain of Luciferin 4-monooxygenase (P08659 whole entry): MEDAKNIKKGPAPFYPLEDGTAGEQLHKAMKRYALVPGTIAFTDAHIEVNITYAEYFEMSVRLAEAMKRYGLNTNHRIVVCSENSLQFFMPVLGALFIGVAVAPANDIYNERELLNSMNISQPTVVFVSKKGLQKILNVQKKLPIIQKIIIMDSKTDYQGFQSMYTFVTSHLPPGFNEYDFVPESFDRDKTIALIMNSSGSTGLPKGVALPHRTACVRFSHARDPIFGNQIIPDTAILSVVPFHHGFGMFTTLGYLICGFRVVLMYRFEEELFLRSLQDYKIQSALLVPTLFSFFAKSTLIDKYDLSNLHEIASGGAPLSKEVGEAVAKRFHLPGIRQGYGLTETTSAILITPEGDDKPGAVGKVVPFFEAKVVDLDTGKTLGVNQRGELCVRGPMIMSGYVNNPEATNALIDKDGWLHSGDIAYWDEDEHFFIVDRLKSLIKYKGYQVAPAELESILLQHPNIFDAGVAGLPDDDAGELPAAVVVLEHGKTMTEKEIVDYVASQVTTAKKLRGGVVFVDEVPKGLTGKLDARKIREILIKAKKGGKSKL
Chain of Cytochrome P450 2C19 (P33261 whole entry): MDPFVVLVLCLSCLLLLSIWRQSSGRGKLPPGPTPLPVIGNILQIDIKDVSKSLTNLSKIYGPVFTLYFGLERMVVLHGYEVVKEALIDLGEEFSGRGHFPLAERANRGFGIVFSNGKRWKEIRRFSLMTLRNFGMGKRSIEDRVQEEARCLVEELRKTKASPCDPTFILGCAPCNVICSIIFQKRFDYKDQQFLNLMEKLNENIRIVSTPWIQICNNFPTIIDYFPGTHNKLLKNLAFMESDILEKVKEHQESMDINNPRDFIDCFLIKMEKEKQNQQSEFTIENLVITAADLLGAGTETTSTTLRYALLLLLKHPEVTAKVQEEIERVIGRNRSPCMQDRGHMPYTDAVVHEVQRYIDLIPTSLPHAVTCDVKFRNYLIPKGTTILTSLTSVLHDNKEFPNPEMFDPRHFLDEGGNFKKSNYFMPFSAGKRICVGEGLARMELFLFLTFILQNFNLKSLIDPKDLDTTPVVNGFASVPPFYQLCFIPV

Compound: CC[C@]1(O)C[C@H]2CN(CCc3c([nH]c4ccccc34)[C@@](C(=O)OC)(c3cc4c(cc3OC)N(C)[C@H]3[C@@](O)(C(=O)OC)[C@H](OC(C)=O)[C@]5(CC)C=CCN6CC[C@]43[C@@H]65)C2)C1
- GI50 (P388): 0.000674 µM (active)
- GI50 (P388/ADR): 0.103 µM (active)
- GI50 (SN12K1): 0.000348 µM (active)

Compound: O=S(=O)(c1cc(F)ccc1F)N1CCN(c2ncnc3ccccc23)CC1
- AC50 [1]: 1.85 µM (active)
- AC50 [2]: 4.86 µM (active)
- AC50 [3]: 33.6 µM (active)
- IC50 [4]: 65.1 µM (inactive)
- AC50 (INS1): 2.26 µM (active)

Compound: CCCCCCCCCOCC(COP(=O)([O-])OCC[N+](C)(C)C)OC (configuration not stated)
- GI50 (P388): 99.1 µM (inactive)
- GI50 (P388/ADR): > 100 µM (inactive)
- GI50 (SN12K1): > 100 µM (inactive)

Compound: S=C(NCCSCc1ccc(Cl)cc1Cl)Nc1ccccc1
- EC50 [5]: 11.5 µM (active)
- AC50 (Cytochrome P450 2C9): inconclusive
- EC50 (Streptokinase A): > 150 µM (not active)
- EC50 (Streptococcus): 17 µM (active)

Compound: Cc1ccc(OCC(=O)NNC(=O)Cn2nnc(-c3ccccc3)n2)cc1
- IC50 [6]: 12.7 µM (active)

Compound: CC(/C=C/c1ccco1)=N\NC(=O)c1cc(Cl)ccc1O
- IC50 [6]: 10.7 µM (active)

Compound: Nc1ccn(C2CCC(CO)O2)c(=O)n1 (configuration not stated)
- GI50 (P388): > 100 µM (inactive)
- GI50 (P388/ADR): > 80.4 µM (inactive)
- GI50 (SN12K1): > 100 µM (inactive)

Compound: CC(Oc1ccc(Cl)cc1Cl)c1nc(-c2ccc(NC(=O)c3ccncc3)cc2)no1 (configuration not stated)
- AC50 [1]: 3.93 µM (active)
- AC50 [2]: 21.7 µM (active)
- EC50 [7]: > 60 µM (not active)
- EC50 [8]: 1.46 µM (active)
- AC50 [3]: 6.83 µM (active)
- IC50 [4]: > 80 µM (inactive)

Compound: CCOC(=O)NC(=O)c1cn(CCN(CCO)C(=O)NCCCCCCNC(=O)N(CCO)CCn2cc(C(=O)NC(=O)OCC)c(=O)[nH]c2=O)c(=O)[nH]c1=O
- GI50 (P388): > 100 µM (inactive)
- GI50 (P388/ADR): > 100 µM (inactive)
- GI50 (SN12K1): > 100 µM (inactive)

Compound: COc1ccc(NC(=O)CSc2c3c(nc4cc(Cl)ccc24)CCCC3)cc1OC
- EC50 (Protein RecA): 3.1 µM (active)
- AC50 [9]: 8.17 µM (active)
- EC50 [10]: > 112 µM (not active)
- EC50 [11]: > 112 µM (not active)

Compound: O=C(O)c1ccc(-c2ccc(-c3ccccc3)cc2)s1
- IC50 [4]: > 80 µM (inactive)

Compound: CNc1nc(-c2c(C)noc2C)nc2ccccc12
- AC50 (Cytochrome P450 2C19): 3.98 µM (inconclusive)
- AC50 (Cytochrome P450 2C9): inconclusive
- AC50 (Cytochrome P450 3A4): 12.6 µM (inconclusive)

Compound: COc1cccc2cc(-c3cc(=O)oc4cc(C)c(O)cc34)oc12
- IC50 [6]: 9.12 µM (active)

Compound: O=C1c2ccccc2-c2c1nc1c([n+]2[O-])CCCC1
- EC50 [12]: 4.63 µM (active)
- EC50 (H4): 6.95 µM (active)
- EC50 (Protein RecA): 20.1 µM (active)
- AC50 [9]: 21 µM (active)
- EC50 [13]: 0.262 µM (active)

Compound: CCn1cc(C(=O)NCc2ccco2)c(=O)c2cc(F)c(N3CCN(C(=O)c4ccco4)CC3)cc21
- IC50 [6]: 17.6 µM (active)

Compound: O=C(Nc1nc2ccccc2s1)C1CCN(S(=O)(=O)c2cc([N+](=O)[O-])ccc2Cl)CC1
- AC50 [14]: 25 µM (active)
- AC50 [1]: 3.07 µM (active)
- AC50 [2]: 2.18 µM (active)
- EC50 [7]: > 60 µM (not active)
- EC50 [8]: 0.713 µM (active)
- IC50 [6]: 3.28 µM (active)
- AC50 [3]: 50.7 µM (active)

Compound: COc1ccc(C(=O)NCC(=O)Nc2ccc(-c3ccccc3)cc2)cc1
- IC50 [6]: 5.62 µM (active)
